# In US20190284192A1, “NITROGENOUS MACROCYCLIC COMPOUND, PREPARATION METHOD THEREFOR, PHARMACEUTICAL COMPOSITION AND APPLICATION THEREOF” (LUOXIN PHARMACEUTICAL (SHANGHAI) CO., LTD., priority 2016, published 2019):
# System: MYC mRNA expression in MV-4-11 xenograft tumor
# Test: PKPD of compound 4009 in MV-4-11 subcutaneous xenograft (MYC mRNA by RT-qPCR)
# Assay type: in vivo, BALB/c nude mice
# Conditions: 15 mg/kg single dose intragastric; 1, 2, 4, 6, 8, 24 h
# Protocol: Cell Culture MV-4-11 (purchased from ATCC, CRL-9591) cells were single-layer-cultured in vitro, culture condition is IMDM medium supplemented with 10% heat-inactivated fetal bovine serum and 1% penicillin-streptomycin double antibody, at 37° C., 5% CO2. According to the growth of the cells, the treatment was passaged twice a week. When the cells are in the exponential growth phase, the cells are collected, counted, and inoculated.
# Experimental protocol: 0.2 mL of cell suspension containing about […] cells (cell suspended in IMDM medium and added with 50% Matrigel) was inoculated subcutaneously into the right back of each mouse. […] Grouping method: animals were weighed before dosing and tumor volume was measured. […]
# Preparation of cDNA: The concentration of RNA (NanaDrop2000) was determined, 2 μg RNA was used as a template for reverse transcription, and cDNA preparation (RT-PCR) was performed using a High Capacity cDNA Reverse Transcription Kit.
# Quantitative amplification of the target gene: Real-time qPCR amplification was performed using TaqMan fluorescent probe and cDNA as a template. […] The reaction system was separately added to a 384-well plate, and each sample of the target gene and the comparative gene was measured for three replicate wells, and the reaction was run on a prepared 384-well plate instrument (ABI ViiA7).
structure (smiles),measurement,value
"CCS(=O)(=O)Cc1ccc2c(c1)-c1cn(C)c(=O)cc1CN=C2c1ccc(F)cc1 [Compound 4009, 7-(4-fluorophenyl)-2-methyl-10-(ethylsulfonemethyl)-2H-benzo[c]pyrido[3,4-e]azepin-3(5H)-ketone]",inhibition of the expression level of MYC mRNA in the tumor versus concentration of the drug in the tumor,good correlation
